Experimental data from patent US9174995B2, “Pyrrolotriazinone derivatives” (Merck Patent GmbH, priority 2012, dated 2015).

How the values were obtained:
[1] = molecular target: T1, GST-tagged Tnks-2 (873-1166 aa) (Homo sapiens, UniProt Q9H2K2); assay: TNKS2 activity ELISA (autoparsylation assay); format: biochemical
T1 construct: GST-tagged Tnks-2 (873-1166 aa, prepared in-house); made in house
Description: (§1) Description of the TNKS1 and TNKS2 ELISA Assay
(§2) Biochemical Activity Testing of TNKS 1 and 2: Activity ELISA (Autoparsylation Assay)
(§3) For analysis of autoparsylation activity of TNKS 1 and 2 an activity ELISA is performed: In the first step GST tagged TNKS is captured on a Glutathione coated plate. Then the activity assay with biotinylated NAD is performed in the absence/presence of the compounds. During the enzymatic reaction GST tagged TNKS transfers biotinylated ADP-ribose to itself from biotinylated NAD as co-substrate. For the detection streptavidin-HRP conjugate is added that binds to the biotinylated TNKS and is thereby captured to the plates. The amount of biotinylated resp. autoparsylated TNKS is detected with a luminescence substrate for HRP. The level of the luminescence signal correlats directly with the amount of autoparsylated TNKS and therefore with activity of TNKS.
(§4) The activity ELISA is performed in 384 well Glutathione coated microtiter plates (Express capture Glutathione coated plate, Biocat, Heidelberg, Germany). The plates are pre-equilibrated with PBS. Then the plates are incubated with 50 μl 20 ng/well GST-tagged Tnks-1 (1023-1327 aa, prepared in-house), respectively GST-tagged Tnks-2 (873-1166 aa, prepared in-house) in assay buffer (50 mM HEPES, 4 mM Mg-chloride, 0.05% Pluronic F-68, 2 mM DTT, pH 7.7) overnight at 4° C. The plates are washed 3 times with PBS-Tween-20. The wells are blocked by incubation at room temperature for 20 minutes with 50 μl blocking buffer (PBS, 0.05% Tween-20, 0.5% BSA). Afterwards the plates are washed 3 times with PBS-Tween-20. The enzymatic reaction is performed in 50 μl reaction solution (50 mM HEPES, 4 mM Mg-chloride, 0.05% Pluronic F-68, 1.4 mM DTT, 0.5% DMSO, pH 7.7) with 10 μM bio-NAD (Biolog, Life science Inst., Bremen, Germany) as co-substrate in the absence or presence of the test compound (10 dilution concentrations) for 1 hour at 30° C. The reaction is stopped by 3 times washing with PBS-Tween-20. For the detection 50 μl of 20 ng/μl Streptavidin, HRP conjugate (MoBiTec, Göttingen, Germany) in PBS/0.05%Tween-20/0.01%BSA are added and the plates are incubated for 30 minutes at room temperature. After three times washing with PBS-Tween-20 50 μl of SuperSignal ELISA Femto Maximum sensitivity substrate solution (ThermoFisherScientific (Pierce), Bonn, Germany) are added. Following a 1 minute incubation at room temperature luminescence signals are measured with an Envision multimode reader (Perkin Elmer LAS Germany GmbH) at 700 nm. The full value used is the inhibitor-free reaction. The pharmacological zero value used is XAV-939 (Tocris) in a final concentration of 5 μM. The inhibitory values (IC50) are determined using either the program Symyx Assay Explorer® or Condosseo® from GeneData.

[2] = molecular target: T2, GST-tagged Tnks-1 (1023-1327 aa) (Homo sapiens, UniProt O95271); assay: TNKS1 activity ELISA (autoparsylation assay); format: biochemical
T2 construct: GST-tagged Tnks-1 (1023-1327 aa, prepared in-house); made in house
T2 sequence (O95271 1023-1327): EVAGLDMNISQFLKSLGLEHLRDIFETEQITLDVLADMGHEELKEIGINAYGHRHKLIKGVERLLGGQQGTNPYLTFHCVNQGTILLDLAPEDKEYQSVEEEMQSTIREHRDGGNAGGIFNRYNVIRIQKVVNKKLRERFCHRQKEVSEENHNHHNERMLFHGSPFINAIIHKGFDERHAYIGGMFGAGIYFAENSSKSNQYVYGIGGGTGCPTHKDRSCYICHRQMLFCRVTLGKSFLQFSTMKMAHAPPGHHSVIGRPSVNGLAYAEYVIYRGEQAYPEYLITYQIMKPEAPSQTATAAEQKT
Description: as §1, §2, §3, §4

[3] = molecular target: T3, GST-tagged Tankyrase-1 (1023-1327 aa) (Homo sapiens, UniProt O95271); assay: Tankyrase 1 autoparsylation assay (HTRF enzyme assay); format: biochemical
T3 construct: GST-tagged Tankyrase-1 (1023-1327 aa)
T3 sequence (O95271 1023-1327): as above
Description: (§5) Biochemical Activity Testing of Tankyrase 1 and 2: Autoparsylation Assay
(§6) The autoparsylation assay is run in two steps: the enzymatic reaction in which GST-tagged Tankyrase-1, resp Tankyrase-2 transferred biotinylated ADP-ribose to itself from biotinylated NAD as co-substrate and the detection reaction where a time resolved FRET between cryptate labelled anti-GST bound to the GST tag of the enzyme and Xlent® labelled-streptavidin bound the biotin-parsylation residue is analysed. The autoparsylation activity was detectable directly via the increase in HTRF signal.
(§7) The autoparsylation assay is performed as 384-well HTRF® (Cisbio, Codolet, France) assay format in Greiner low volume nb 384-well microtiter plates and is used for high throughput screen. 250 nM GST-tagged Tankyrase-1 (1023-1327 aa), respectively about 250 nM GST-tagged Tankyrase-2 (873-1166 aa) and 5 μM bio-NAD (Biolog, Life science Inst., Bremen, Germany) as co-substrate are incubated in a total volume of 5 μl (50 mM HEPES, 4 mM Mg-chloride, 0.05% Pluronic F-68, 1.4 mM DTT, 0.5% DMSO, pH 7.7) in the absence or presence of the test compound (10 dilution concentrations) for 90 min at 30° C. The reaction is stopped by the addition of 1 μl 50 mM EDTA solution. 2 μl of the detection solution (1.6 μM SA-Xlent® (Cisbio, Codolet, France), 7.4 nM Anti-GST-K® (Eu-labelled anti-GST, Cisbio, Codolet, France) in 50 mM HEPES, 800 mM KF, 0.1% BSA, 20 mM EDTA, 0.1% CHAPS, pH 7.0) are added. After 1 h incubation at room temperature the HTRF is measured with an Envision multimode reader (Perkin Elmer LAS Germany GmbH) at excitation wavelength 340 nm (laser mode) and emission wavelengths 615 nm and 665 nm. The ratio of the emission signals is determined. The full value used is the inhibitor-free reaction. The pharmacological zero value used is XAV-939 (Tocris) in a final concentration of 5 μM. The inhibitory values (IC50) are determined using either the program Symyx Assay Explorer® or Condosseo® from GeneData.

[4] = molecular target: T4, GST-tagged Tankyrase-2 (873-1166 aa) (Homo sapiens, UniProt Q9H2K2); assay: Tankyrase 2 autoparsylation assay (HTRF enzyme assay); format: biochemical
T4 construct: GST-tagged Tankyrase-2 (873-1166 aa)
T4 sequence (Q9H2K2 873-1166): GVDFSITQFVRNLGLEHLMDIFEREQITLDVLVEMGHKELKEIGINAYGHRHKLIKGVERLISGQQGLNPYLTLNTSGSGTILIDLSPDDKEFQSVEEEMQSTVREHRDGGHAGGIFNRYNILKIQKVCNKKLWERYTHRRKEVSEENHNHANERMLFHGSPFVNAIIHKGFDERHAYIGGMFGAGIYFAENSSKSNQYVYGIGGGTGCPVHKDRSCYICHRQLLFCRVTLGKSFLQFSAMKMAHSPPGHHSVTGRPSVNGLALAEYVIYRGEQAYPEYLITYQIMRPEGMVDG
Description: as §5, §6, §7

Tankyrases = assay: Cellular inhibition of Tankyrase: increase of Axin2 level in DLD1 cells (Luminex); format: cell-based; conditions: 24 hours, read-out: EC50 tankyrase ½ (cell assay)
Description: Measurement of Cellular Inhibition of Tankyrase
Since Tankyrases have been described to modulate cellular level of Axin2 (Huang et al., 2009; Nature) the increase of Axin2 level is used as readout for determination of cellular inhibition of Tankyrases in a Luminex based assay.
Cells of the colon carcinoma cell line DLD1 are plated in 96 well plates with 1.5×10^4 cells per well. Next day, cells are treated with a serial dilution of test compound in seven steps as triplicates with a final DMSO concentration of 0.3%. After 24 hours, cells are lysed in lysis buffer (20 mM Tris/HCl pH 8.0, 150 mM NaCl, 1% NP40, 10% Glycerol) and lysates are cleared by centrifugation through a 96 well filter plate (0.65 μm). Axin2 protein is isolated from cell lysates by incubation with a monoclonal anti-Axin2 antibody (R&D Systems #MAB6078) that is bound to fluorescent carboxybeads. Then, bound Axin2 is specifically detected with a polyclonal anti-Axin2 antibody (Cell Signaling #2151) and an appropriate PE-fluorescent secondary antibody. The amount of isolated Axin2 protein is determined in a Luminex^200 machine (Luminex Corporation) according to the manufacturer's instruction by counting 100 events per well. Inhibition of Tankyrase by test compounds results in higher levels of Axin2 which directly correlates with an increase of detectable fluorescence. As controls cells are treated with solvent alone (neutral control) and with a Tankyrase reference inhibitor IWR-2 (3E-06 M) which refers as control for maximum increase of Axin2. For analysis, the obtained data are normalized against the untreated solvent control and fitted for determination of the EC50 values using the Assay Explorer software (Accelrys).

DLD-1-cancer cells = conditions: cited from earlier work

T1 sequence (Q9H2K2 873-1166): as above

| Structure (SMILES) | IC50 [1] [nM] | IC50 [2] [nM] | IC50 [3] [nM] | IC50 [4] [nM] | EC50 (Tankyrases) [nM] | growth of DLD-1-cancer cells (DLD-1-cancer cells) |
| --- | --- | --- | --- | --- | --- | --- |
| Cc1ccc(-c2nn3cccc3c(=O)[nH]2)cc1 [Compound A1, 2-p-tolyl-3H-pyrrolo[2,1-f][1,2,4]triazin-4-one] | < 300 | < 300 | < 300 | < 300 |  |  |
| COC(=O)c1ccc(-c2nn3cccc3c(=O)[nH]2)cc1 [Compound A2, 4-(4-oxo-3,4-dihydro-pyrrolo[2,1-f][1,2,4]triazin-2-yl)-benzoic acid methyl ester] |  |  | < 300 | < 300 | 300 to 3000 |  |
| CC(C)(C)c1ccc(-c2nn3cccc3c(=O)[nH]2)cc1 [Compound A3, 2-(4-tert-butyl-phenyl)-3H-pyrrolo[2,1-f][1,2,4]triazin-4-one] |  |  | < 300 | 300 to 3000 | 300 to 3000 |  |
| O=c1[nH]c(-c2ccc(Br)cc2)nn2cccc12 [Compound A6, 2-(4-bromo-phenyl)-3H-pyrrolo[2,1-f][1,2,4]triazin-4-one] |  |  | < 300 | < 300 |  |  |
| CC(C)(N)c1ccc(-c2nn3cccc3c(=O)[nH]2)cc1 [Compound A16, 2-[4-(1-amino-1-methyl-ethyl)-phenyl]-3H-pyrrolo[2,1-f][1,2,4]-triazin-4-one] |  |  | 300 to 3000 | 300 to 3000 |  |  |
| Cc1cc2c(=O)[nH]c(-c3ccc(C(C)(C)O)cc3)nn2n1 [Compound A17, 6-[4-(1-hydroxy-1-methyl-ethyl)-phenyl]-2-methyl-5H-1,5,7,7a-tetraaza-inden-4-one] | 300 to 3000 | 300 to 3000 | 300 to 3000 | 300 to 3000 | 3000 to 50000 |  |
| Cc1ccc2c(=O)[nH]c(-c3ccc(C(C)(C)O)cc3)nn12 [Compound A19, 2-[4-(1-hydroxy-1-methyl-ethyl)-phenyl]-7-methyl-3H-pyrrolo[2,1-f][1,2,4]triazin-4-one] |  |  | < 300 | < 300 | < 300 |  |
| CC(C)(O)c1ccc(-c2nn3c(C(F)(F)F)ccc3c(=O)[nH]2)cc1 [Compound A20, 2-[4-(1-hydroxy-1-methyl-ethyl)-phenyl]-7-trifluoromethyl-3H-pyrrolo[2,1-f][1,2,4]triazin-4-one] |  |  | 300 to 3000 | 3000 to 50000 |  |  |
| Oc1nc(-c2ccc(C(F)(F)F)cc2)nc2c1CSCC2 [XAV939] |  |  |  |  |  | inhibits growth |
